{"source": "patent US20240299394A1", "about": "“TARGETED TREATMENT FOR SKIN FRAGILITY DISEASES” (University of Washington, priority 2023, published 2024)", "key": {"[1]": {"system": "HET or KO keratinocyte sheets", "test": "Monolayer mechanical dissociation assay, SERCA2-deficient keratinocytes", "format": "cell-based, human", "conditions": "HET or KO monolayers; trametinib 1 μM 48 hours; PD98059 20 μM 24 hours", "description": "(§1) Dispase-based mechanical dissociation assays were carried out as described (Simpson C L, et al. Am J Pathol. 2010; 177(6): p. 2921-37). Keratinocytes were plated at a density of 1×10^6 cells per well of 6-well cell culture dishes. Upon reaching confluence, the calcium concentration of the medium was adjusted to 1.3 mM. Vehicle control (DMSO) or chemical inhibitors were added at the following concentrations: […] After 24 to 72 hours, monolayers were washed with PBS and then incubated with 500 μL dispase (5 U/ml) in Hank's balanced salt solution (Stemcell Technologies of Vancouver, CA, Cat. #07913) for 30 minutes at 37° C. Next, 4.5 ml PBS was added to the wells and all liquid plus released monolayers were transferred into 15 mL conical tubes, which were placed together in a rack and inverted 5-10 times to induce mechanical stress. Monolayer fragments were transferred back into 6-well cell culture plates and imaged with a 12-megapixel digital camera. Fragments were counted in Fiji."}, "[2]": {"system": "NHEK monolayers", "test": "Monolayer mechanical dissociation assay, SERCA2 inhibition with thapsigargin", "format": "cell-based, human", "conditions": "24 hours; for integrity of epithelial sheets despite SERCA2 inhibition: with 1 μM TG, 1 μM Tram, 10 μM U0126, 20 μM PD98059, 1 μM dabrafenib", "description": "as §1"}, "[3]": {"system": "organotypic epidermis grown from NHEKs", "test": "Histology (H&E) of organotypic epidermis treated with TG", "format": "cell-based, human"}, "[4]": {"system": "NHEK monolayers", "test": "Monolayer mechanical dissociation assay, B-RAF inhibitor model of Grover disease", "format": "cell-based, human", "conditions": "co-treatment with Dab or Vem; trametinib 1 μM, U0126 10 μM, PD98059 20 μM; 24 h", "description": "Dispase-based mechanical dissociation assays were carried out as described (70). Keratinocytes were plated at a density of 1×10^6 cells per well of 6-well cell culture dishes. Upon reaching confluence, the cells were switched into E-medium. Vehicle control (DMSO) or chemical inhibitors were added at the following concentrations: Dabrafenib (1 μM), vemurafenib (10 μM) trametinib (1 μM), U0126 (10 μM), or PD98059 (20 μM). After 24 h, monolayers were washed with PBS and then incubated with 500 μL dispase (5 U/ml) in Hank's balanced salt solution (Stemcell Technologies of Vancouver, Canada, Cat. #07913) for 30 minutes at 37° C. Next, 4.5 mL PBS was added to the wells and all liquid plus released monolayers were transferred into 15 mL conical tubes, which were placed together in a rack and inverted 1-10 times to induce mechanical stress. Monolayer fragments were transferred back into 6-well cell culture plates and imaged with a 12-megapixel digital camera. Fragments were counted in Fiji."}, "[5]": {"system": "HET cells (SERCA2-depleted keratinocytes, THEKs)", "test": "RT-qPCR of keratinocyte mRNA transcripts", "format": "cell-based, human", "conditions": "HET cells in E-medium 24 hours; trametinib 1 μM, U0126 10 μM, PD184352 10 μM", "description": "THEKs were seeded at a density of 1×10^6 cells per well of 6-well cell culture dishes in complete KSFM. Upon reaching confluence, KSFM was replaced with E-medium containing vehicle control (DMSO) or inhibitors at the following concentrations: Trametinib (1 μM), U0126 (10 μM), or PD184352 (10 μM). At the indicated time points, cell culture medium was removed and cells were washed once with PBS. RNA was extracted using the NucleoSpin RNA Plus Kit (Machery-Nagel of Duren, Germany) followed by reverse-transcription with the iScript cDNA synthesis kit (Bio-Rad of Hercules, CA) according to the manufacturer's instructions. Copy DNAs, also referred to as complementary DNAs (cDNAs) were diluted 5-fold and 2 μL of the resulting cDNAs were used for each 10 μL quantitative polymerase chain reaction (qPCR) assay. Real-time qPCR assays were carried out using the TaqMan Gene expression master mix (Applied Biosystems of Waltham, MA) according to the manufacturer's protocol. Pre-designed TaqMan probes from Thermo-Fisher were used for quantification of human Actb (Hs01060665_g1), Krt1 (Hs00196158_m1), Krt10 (Hs00166289_m1), Krt14 (Hs00265033_m1), Dsg1 (Hs00355084_m1), Alox12b (Hs00153961_m1), Alox15b (Hs00153988_m1), Ifi27 (Hs01086373_g1), Trpv3 (Hs00376854_m1), Trpv4 (Hs01099348_m1), or Notch1 (Hs01062014_m1). The housekeeping gene Actb was used as an endogenous control and mRNA fold changes were determined using the 2^(−ΔΔCt) method."}, "[6]": {"system": "NHEKs", "test": "KRT10 immunostaining of TG-treated keratinocytes", "format": "cell-based, human", "conditions": "1 μM TG alone, 48 hours", "description": "Keratinocytes were grown to confluence in 35 mm, glass-bottom cell culture dishes (MatTek of Ashland, MA, #P35G-1.5-20-C). For staining keratins and desmosomal proteins, cells were fixed in ice-cold 100% methanol at −20° C. for 2 minutes, allowed to dry, then re-hydrated in PBS. For staining other proteins, cells were fixed in 4% paraformaldehyde for 10 minutes at 37° C. Fixed cells were then incubated with blocking buffer [0.5% (w/v) bovine serum albumin (BSA, Sigma), 10% (w/v) normal goat serum (NGS, Sigma) in PBS] for 30 minutes at 37° C. Cells were then washed with PBS. Primary antibodies were diluted in 0.5% (w/v) BSA in PBS and incubated on the cells overnight at 4° C. Primary antibody dilutions were as follows: rabbit anti-SERCA2 (1:200), rabbit anti-cytokeratin 10 (1:2,000), mouse anti-Desmoglein 1 (1:100), mouse anti-Desmoglein 2 (1:100), mouse anti-Desmoglein 3 (1:100), mouse anti-Plakoglobin (1:100), rabbit anti-PERK1/2 (1:400), and mouse anti-ERK1/2 (1:400). Cells were washed three times with PBS, then incubated with species-specific secondary antibodies diluted at 1:300 (with or without Hoechst at 1:500) in 0.5% (w/v) BSA in PBS for 30 min at 37° C. […]\nFluorescence microscopy images were analyzed using Fiji software. Quantification of fluorescence intensity was performed in a blinded manner using non-visibly identifiable microscopy images. […]"}, "[7]": {"system": "organotypic cultures of NHEKs", "test": "Immunostaining of KRT10 and pERK in organotypic epidermis treated with TG", "format": "cell-based, human", "conditions": "1 μM TG, 48 hours", "description": "Paraffin-embedded formalin-fixed tissue cross-sections on glass slides were incubated at 65° C. for 2 h. Sections were prepared for staining by immersion in 3 baths of xylenes (Thermo-Fisher) for 5 min each, followed by 3 baths of 95% ethanol for 5 min each, then 70% ethanol for 5 minutes, and finally 3 baths of PBS for 5 min each. Slides were then submerged in antigen retrieval solution [0.1 M sodium citrate (pH 6.0) with 0.05% (v/v) Tween-20] and heated to 95° C. for 15 min. Slides were allowed to cool to room temperature and then washed with PBS. Tissue sections were encircled with a hydrophobic barrier using a PAP pen. Tissue sections were incubated in blocking buffer [0.5% (w/v) BSA, 10% (v/v) NGS in PBS] for 30 minutes at 37° C. in a humidified chamber. […]\nFluorescence images of immunostained tissue sections were captured by SDC microscopy as above and analyzed using Fiji. Quantification of fluorescence intensity was performed in using non-visibly labeled images from immunostained tissue cross-sections. The Fiji “Measure” function was used to calculate the mean intensity of the fluorescence signal and the mean background fluorescence intensity, which was subtracted from each value. The net fluorescence intensity was averaged across multiple non-overlapping HPF and the values from control cultures were normalized to an average value of 1."}, "[8]": {"conditions": "B-RAF inhibitor monotherapy for cancer (Carlos G, et al. 2015); cited from earlier work"}}, "note": "Entries after “also recorded” stand apart in the source; their conditions may differ.", "data": [{"smiles": "COc1cccc(-c2cc(=O)c3ccccc3o2)c1N", "note": "[PD98059]", "values": [{"measurement": "resistance of keratinocyte sheets to mechanical stress (number of fragments)", "setting": "[1]", "result": "similarly rescued cohesion"}, {"measurement": "integrity of epithelial sheets despite SERCA2 inhibition", "setting": "[2]", "result": "restored"}, {"measurement": "effect on TG-induced loss of keratinocyte cohesion", "setting": "[3]; 1 μM TG plus 20 μM PD98059 or 1 μM trametinib", "result": "mitigated; also recorded: improved keratinocyte cohesion"}, {"measurement": "effect on TG-induced retention of nuclei in cornified layers / cornification", "setting": "[3]; 1 μM TG plus 20 μM PD98059 or 1 μM trametinib, 48 hours", "result": "reduced TG-induced retention of nuclei in the cornified layers; also recorded: normalization of cornification"}, {"measurement": "integrity of keratinocyte sheets despite B-RAF inhibition", "setting": "[4]", "result": "comparably rescued cell cohesion"}]}, {"smiles": "O=C(NOCC1CC1)c1ccc(F)c(F)c1Nc1ccc(I)cc1Cl", "note": "[PD184352]", "values": [{"measurement": "DSG1 mRNA expression", "setting": "[5]", "result": "sufficient to augment expression"}, {"measurement": "KRT1 mRNA expression", "setting": "[5]", "result": "sufficient to augment expression"}, {"measurement": "KRT10 mRNA expression", "setting": "[5]", "result": "sufficient to augment expression"}, {"measurement": "KRT14 mRNA levels", "setting": "[5]", "result": "did not significantly alter"}]}, {"smiles": "C/C=C(/C)C(=O)O[C@H]1C(C)=C2[C@H]([C@@H]1OC(=O)CCCCCCC)[C@@](C)(OC(C)=O)C[C@H](OC(=O)CCC)[C@@]1(O)[C@H]2OC(=O)[C@@]1(C)O", "note": "[TG, thapsigargin]", "values": [{"measurement": "KRT10 up-regulation by immunostaining", "setting": "[6]", "result": "suppressed their ability to up-regulate KRT10"}, {"measurement": "epithelial sheet fragmentation", "setting": "[2]; 1 μM TG alone", "result": "significant increase in epithelial sheet fragmentation; also recorded: readily fragmented"}, {"measurement": "KRT10 immunostaining in organotypic epidermis", "setting": "[7]", "result": "reduction in KRT10"}, {"measurement": "pERK (ERK activation) in organotypic epidermis", "setting": "[7]", "result": "ERK hyper-activation"}, {"measurement": "keratinocyte cohesion in organotypic epidermis", "setting": "[3]; 1 μM TG alone, 48 hours", "result": "disrupted keratinocyte cohesion most notably between basal and suprabasal cell layers; also recorded: loss of keratinocyte cohesion; also recorded: separation between basal and suprabasal layers"}, {"measurement": "retention of nuclei in cornified layers", "setting": "[3]; 1 μM TG alone, 48 hours", "result": "retention of nuclei in the cornified layers"}]}, {"smiles": "N#CC(=C(/N)Sc1ccccc1N)/C(C#N)=C(\\N)Sc1ccccc1N", "note": "[U0126]", "values": [{"measurement": "DSG1 mRNA expression", "setting": "[5]", "result": "sufficient to augment expression"}, {"measurement": "KRT1 mRNA expression", "setting": "[5]", "result": "sufficient to augment expression"}, {"measurement": "KRT10 mRNA expression", "setting": "[5]", "result": "sufficient to augment expression"}, {"measurement": "KRT14 mRNA levels", "setting": "[5]", "result": "did not significantly alter"}, {"measurement": "integrity of epithelial sheets despite SERCA2 inhibition", "setting": "[2]", "result": "restored"}, {"measurement": "integrity of keratinocyte sheets despite B-RAF inhibition", "setting": "[4]", "result": "comparably rescued cell cohesion"}]}, {"smiles": "CCCS(=O)(=O)Nc1ccc(F)c(C(=O)c2c[nH]c3ncc(-c4ccc(Cl)cc4)cc23)c1F", "note": "[vemurafenib]", "values": [{"measurement": "patients in whom GD was seen", "setting": "[8]", "result": 38.9, "unit": "%"}]}]}
